For data set [1] the following is noted: earlier work; cited from earlier work.
For another data set, the target named is (CUG)12. In words: Isothermal titration calorimetry (ITC) binding to (CUG)12. The settings on record: 25° C., read-out: KD, binding affinity toward (CUG)12. The protocol:
The alkyne and azide moieties were chosen because of their small size, excellent stability, and ultimate bioorthogonality. […] This finding enables the rapid development of a wide range of functional derivatives of ligand 1a using the [3+2] alkyne-azide cycloaddition (‘click reaction’) of 1b and 1c.
The ligand stock solution (10 mM in water). MOPS buffer (100 mM; pH 7.0±0.2), and NaCl (5000 mM) were prepared. The ligand solution (1 mL) contained of 0.5 mM of ligand, 20 mM of MOPS buffer, and 150 mM of NaCl. The RNA solution (2 mL) contained 0.02 mM of RNA, 20 mM of MOPS buffer, and 150 mM of NaCl. The resulting RNA solution was heated in a water bath at 90° C. for 5 min, then allowed to cool to room temperature for 2 h.
ITC measurements were performed at 25° C. on a MicroCal VP-ITC calorimeter (Northampton, Mass.). A typical experiment consisted of titrating 10 μL of a ligand solution (500 μM) from a 250 μL syringe (stirred at 300 rpm) into a sample cell containing 1.42 mL of a RNA solution (10 μM) with total 28 injections. The initial delay prior to the first injection was 60 s. The duration of each injection was 24 s and the delay between injections was 300 s. […] Binding parameters such as the dissociation constant (KD), enthalpy change (ΔH), and entropy change (ΔS) were determined by fitting the experimental binding isotherms with various model. […]

The target of the next data set is MBNL1-(CUG)12 complex. Conditions: earlier work; read-out: KI, inhibition of MBNL1-(CUG)12 complex; cited from earlier work.

In general, Kd refers to the concentration at which binding is half-saturated. By Ki is commonly meant a measure of affinity in units of concentration, obtained from inhibition or displacement. Consider `N=C(NCCCCNc1nc(N)nc(N)n1)c1ccc(C(=N)NCCCCNc2nc(N)nc(N)n2)cc1` [Compound 1a], for which the water solubility result in data set [1] is “excellent water solubility”. Also, the Kd at (CUG)12 came to 8 µM. Further, on MBNL1-(CUG)12 complex, the Ki is 8 µM.

These data come from patent US10266520B2, “Bisamidinium-based inhibitors for the treatment of myotonic dystrophy” (The Board of Trustees of the University of Illinois, priority 2014, dated 2019).
